Earlier results as cited in article PMC3918212 (Biopolymers, 2013).

Settings: PBS at 37 °C

MATLEKLMKAFESLKSF [htt^NT]
Aggregation behaviour on incubation: slow, concentration dependent conversion into an α-helix rich, sedimentable oligomer
